From US9302999B2, “Substituted triazoles as herbicides” (E. I. DU PONT DE NEMOURS AND COMPANY, priority 2012, dated 2016)

Key:
Type in all cases: in vivo
[1] = test system: nutsedge, yellow (yellow nutsedge, Cyperus esculentus); experiment: Test F pre-/postemergence: nutsedge, yellow; details: Preemergence
Excerpt: (§1) Seeds of plant species selected from corn (Zea mays), soybean (Glycine max), velvetleaf (Abutilon theophrasti), lambsquarters (Chenopodium album), poinsettia, wild (wild poinsettia, Euphorbia heterophylla), pigweed, palmer (palmer pigweed, Amaranthus palmeri), waterhemp (common waterhemp, Amaranthus rudis), surinam grass (Brachiaria decumbens), crabgrass, Brazil (Brazilian crabgrass, Digitaria horizontalis), panicum, fall (fall panicum Panicum dichotomiflorum), crabgrass, large (large crabgrass, Digitaria sanguinalis), foxtail, giant (giant foxtail, Setaria faberii), foxtail, green (green foxtail Setaria viridis), goosegrass (Eleusine indica), ragweed (common ragweed, Ambrosia elatior), barnyardgrass (Echinochloa crus-galli), sandbur (southern sandbur, Cenchrus echinatus), arrowleaf sida (Sida rhombifolia), ryegrass, Italian (Italian ryegrass, Lolium multiflorum), dayflower, VA (Virginia (VA) dayflower, Commelina virginica), field bindweed (Convolvulus arvensis), cocklebur (common cocklebur, Xanthium strumarium), morningglory (Ipomoea coccinea), nightshade (eastern black nightshade, Solanum ptycanthum), kochia (Kochia scoparia), nutsedge, yellow (yellow nutsedge, Cyperus esculentus), johnsongrass (Sorghum halepense), smartweed (ladysthumb smartweed, Polygonum persicaria), and beggarticks (hairy beggarticks, Bidens pilosa), were planted into a silt loam soil and treated preemergence with test chemicals formulated in a non-phytotoxic solvent mixture which included a surfactant. At the same time, plants selected from these crop and weed species and also pigweed (Amaranthus retroflexus), waterhemp_RES1 (ALS/Triazine resistant common waterhemp, Amaranthus rudis) and waterhemp_RES2 (ALS/HPPD resistant common waterhemp, Amaranthus rudis) were planted in pots containing a planting medium comprising spaghnum peat moss, vermiculite, wetting agent and starter nutrients treated with postemergence applications of some of the test chemicals formulated in the same manner. Plants ranged in height from 2 to 18 cm for postemergence treatments (1- to 4-leaf stage).
(§2) Treated plants and controls were maintained in a greenhouse for 14 to 21 days, after which time all species were compared to controls and visually evaluated. Plant response ratings, summarized in Table E, are based on a scale of 0 to 100 where 0 is no effect and 100 is complete control. A dash (-) response means no test result.

[2] = test system: sandbur (southern sandbur, Cenchrus echinatus); experiment: Test F pre-/postemergence: sandbur; details: Preemergence
Excerpt: as §1, §2

[3] = test system: field bindweed (Convolvulus arvensis); experiment: Test F pre-/postemergence: field bindweed; details: Preemergence
Excerpt: as §1, §2

corn (Zea mays) = experiment: Test E pre-/postemergence: corn; details: scale 0 to 100
Excerpt: (§3) Seeds of plant species selected from corn (Zea mays), soybean (Glycine max), velvetleaf (Abutilon theophrasti), lambsquarters (Chenopodium album), poinsettia, wild (wild poinsettia, Euphorbia heterophylla), pigweed, palmer (palmer pigweed, Amaranthus palmeri), waterhemp (common waterhemp, Amaranthus rudis), smartweed (ladysthumb smartweed, Polygonum persicaria), surinam grass (Brachiaria decumbens), crabgrass, large (large crabgrass, Digitaria sanguinalis), crabgrass, Brazil (Brazilian crabgrass, Digitaria horizontalis), panicum, fall (fall panicum, Panicum dichotomiflorum), foxtail, giant (giant foxtail, Setaria faberii), foxtail, green (green foxtail, Setaria viridis), goosegrass (Eleusine indica), johnsongrass (Sorghum halepense), ragweed (common ragweed, Ambrosia elation), barnyardgrass (Echinochloa crus-galli), sandbur (southern sandbur, Cenchrus echinatus), arrowleaf sida (Sida rhombifolia), ryegrass, Italian (Italian ryegrass, Lolium multiflorum), dayflower, (VA) (Virginia dayflower, Commelina virginica), field bindweed (Convolvulus arvensis), cocklebur (common cocklebur, Xanthium strumarium), morningglory (Ipomoea coccinea), nightshade (eastern black nightshade, Solanum ptycanthum), kochia (Kochia scoparia), nutsedge, yellow (yellow nutsedge, Cyperus esculentus) and beggarticks (hairy beggarticks, Bidens pilosa) were planted into a silt loam soil and treated preemergence with test chemicals formulated in a non-phytotoxic solvent mixture which included a surfactant. At the same time, plants selected from these crop and weed species were planted in pots containing a growing medium comprising spaghnum peat moss, vermiculite, wetting agent and starter nutrients and treated with postemergence applications of some of the test chemicals formulated in the same manner. Plants ranged in height from 2 to 18 cm for postemergence treatments (1- to 4-leaf stage).
as §2

[4] = test system: ryegrass, Italian (Italian ryegrass, Lolium multiflorum); experiment: Test E pre-/postemergence: ryegrass, Italian; details: scale 0 to 100
Excerpt: as §3, §2

[5] = test system: foxtail, giant (giant foxtail, Setaria faberii); experiment: Test E pre-/postemergence: foxtail, giant; details: Preemergence, scale 0 to 100
Excerpt: as §3, §2

[6] = 16 g ai/ha, scale 0 to 100 (0 no effect, 100 complete control)
[7] = 31 g ai/ha, scale 0 to 100 (0 no effect, 100 complete control)

SMILES: CCCc1nn(-c2ccc(F)cc2)nc1Cc1ccnc(C(F)(F)F)c1 [Compound 153]
- Plant response rating, Nutsedge, Yellow [1, 6]: 0
- Plant response rating, Nutsedge, Yellow [1, 7]: 0
- Plant response rating, Nutsedge, Yellow ([1]; 125 g ai/ha, scale 0 to 100): 10
- Plant response rating, Nutsedge, Yellow ([1]; 250 g ai/ha, scale 0 to 100): 10
- Plant response rating, Sandbur [2, 6]: 5
- Plant response rating, Sandbur [2, 7]: 35
- Plant response rating, Sandbur ([2]; 125 g ai/ha, scale 0 to 100): 95
- Plant response rating, Sandbur ([2]; 250 g ai/ha, scale 0 to 100): 100
- Plant response rating, Field Bindweed [3, 6]: 5
- Plant response rating, Field Bindweed [3, 7]: 65
- Plant response rating, Field Bindweed ([3]; 62 g ai/ha, scale 0 to 100): 65
- Plant response rating, Field Bindweed ([3]; 125 g ai/ha, scale 0 to 100): 100
- Plant response rating, Field Bindweed ([3]; 250 g ai/ha, scale 0 to 100): 100

SMILES: Cc1nn(-c2ccc(C(F)(F)F)cc2)nc1Cc1ccnc(C(F)(F)F)c1 [Compound 47, 4-[[5-methyl-2-[4-(trifluoromethyl)phenyl]-2H-1,2,3-triazol-4-yl]methyl]-2-(trifluoromethyl)pyridine]
- Plant response rating: Corn (corn (Zea mays); Postemergence, 250 g ai/ha): 20
- Plant response rating: Corn (corn (Zea mays); Postemergence, 16 g ai/ha): 10
- Plant response rating: Corn (corn (Zea mays); Postemergence, 31 g ai/ha): 15
- Plant response rating: Corn (corn (Zea mays); Postemergence, 62 g ai/ha): 20
- Plant response rating: Corn (corn (Zea mays); Postemergence, 125 g ai/ha): 20
- Plant response rating: Corn (corn (Zea mays); Preemergence, 16 g ai/ha): 0
- Plant response rating: Corn (corn (Zea mays); Preemergence, 31 g ai/ha): 15
- Plant response rating: Corn (corn (Zea mays); Preemergence, 62 g ai/ha): 20
- Plant response rating: Corn (corn (Zea mays); Preemergence, 125 g ai/ha): 20
- Plant response rating: Corn (corn (Zea mays); Preemergence, 250 g ai/ha): 25
- Plant response rating: Ryegrass, Italian ([4]; Postemergence, 250 g ai/ha): 80
- Plant response rating: Ryegrass, Italian ([4]; Postemergence, 16 g ai/ha): 10
- Plant response rating: Ryegrass, Italian ([4]; Postemergence, 31 g ai/ha): 20
- Plant response rating: Ryegrass, Italian ([4]; Postemergence, 62 g ai/ha): 30
- Plant response rating: Ryegrass, Italian ([4]; Postemergence, 125 g ai/ha): 50
- Plant response rating: Ryegrass, Italian ([4]; Preemergence, 16 g ai/ha): 20
- Plant response rating: Ryegrass, Italian ([4]; Preemergence, 31 g ai/ha): 40
- Plant response rating: Ryegrass, Italian ([4]; Preemergence, 62 g ai/ha): 70
- Plant response rating: Ryegrass, Italian ([4]; Preemergence, 125 g ai/ha): 100
- Plant response rating: Ryegrass, Italian ([4]; Preemergence, 250 g ai/ha): 100
- Plant response rating: Foxtail, Giant ([5]; 16 g ai/ha): 90
- Plant response rating: Foxtail, Giant ([5]; 31 g ai/ha): 100
- Plant response rating: Foxtail, Giant ([5]; 62 g ai/ha): 100
- Plant response rating: Foxtail, Giant ([5]; 125 g ai/ha): 100
- Plant response rating: Foxtail, Giant ([5]; 250 g ai/ha): 100

SMILES: Fc1ccc(-n2nc(Cc3ccnc(C(F)(F)F)c3)c(OCC(F)(F)F)n2)cc1 [Compound 142]
- Plant response rating, Nutsedge, Yellow [1, 6]: 0
- Plant response rating, Nutsedge, Yellow [1, 7]: 0
- Plant response rating, Nutsedge, Yellow ([1]; 125 g ai/ha, scale 0 to 100): 0
- Plant response rating, Sandbur [2, 6]: 5
- Plant response rating, Sandbur [2, 7]: 5
- Plant response rating, Sandbur ([2]; 125 g ai/ha, scale 0 to 100): 70
- Plant response rating, Field Bindweed [3, 6]: 20
- Plant response rating, Field Bindweed [3, 7]: 50
- Plant response rating, Field Bindweed ([3]; 62 g ai/ha, scale 0 to 100): 75
- Plant response rating, Field Bindweed ([3]; 125 g ai/ha, scale 0 to 100): 98
